Ends that are not written are not given here.
Legend:
KpTs113 [1] = assay: Peptide uptake by flow cytometry with Trypan Blue quenching; assay type: cell-based, Klebsiella pneumoniae; details: KpTs113, 0.25 µM peptide, 10 min, 37 °C, 1 mg/mL TB
Procedure: Flow cytometric assays were performed with a Cytomics FC 500 instrument (Beckman-Coulter, Inc., Fullerton, CA, USA) equipped with an argon laser (488 nm, 5 mW) and photomultiplier tube fluorescence detectors. Filtered light wavelength was set at 610 nm for Propidium Iodide (PI) (Sigma, Saint Louis, MO, USA) detection and at 525 nm for BODIPY (BY) detection. All detectors were set on logarithmic amplification. Optical and electronic noise were eliminated by setting an electronic gating threshold on the forward scattering detector, while the flow rate was kept at a data rate below 300 events/second to avoid cell coincidence. For each sample, at least 10,000 events were acquired and stored as list mode files. For the uptake evaluation, cultures of mid-log phase bacteria, diluted to 1 × 10^6 CFU/mL in MHB, were incubated at 37 °C for 10 min with 0.25 µM Bac7(1–35)-BY; after incubation, treated bacterial cells were washed three times in buffered high salt solution (10 mM sodium phosphate, 400 mM NaCl, 10 mM MgCl2, pH 7.2) in order to remove the fraction of peptide bound to the cell surfaces, and immediately analysed by the flow cytometer with or without a 10 min pre-incubation at room temperature with 1 mg/mL of the quencher Trypan Blue (TB).

KpTs107 biofilm = details: 24 h
ATCC 700603 biofilm = details: ATCC 700603, 24 h
KpTs101 [2] = assay type: cell-based, Klebsiella pneumoniae; details: 24 h
Procedure: (§1) Minimum inhibitory concentration (MIC) determinations were carried out in MHB on mid-log phase bacteria (1–5 × 10^5 CFU/mL, CFU: colony-forming units) as previously described. […] Data are reported in Table 2 (Ps column) together with MIC and BIC values from Table 1 for an easy comparison. […] To further investigate this protection mechanism, we then determined if the matrix polysaccharide interacted with the helical AMP BMAP-27 by monitoring its effect on peptide structure, using circular dichroism.

KpTs113 [3] = assay type: cell-based, Klebsiella pneumoniae; details: 24 h
Procedure: as §1

KpTs101 biofilm = assay: Biofilm susceptibility assay (BIC), sessile cells on peg lids; assay type: cell-based, Klebsiella pneumoniae; details: sessile KpTs101, 24 h with peptide, then 6 h regrowth, OD590 < 0.05
KpTs109 biofilm = details: 24 h
KpTs113 biofilm = assay: Biofilm susceptibility assay (BIC), sessile cells on peg lids; assay type: cell-based, Klebsiella pneumoniae; details: sessile KpTs113, 24 h with peptide, then 6 h regrowth, OD590 < 0.05
KpTs107 = assay type: cell-based, Klebsiella pneumoniae; details: 24 h
Procedure: (§2) The bacterial inoculum was incubated overnight in MHB with shaking, then diluted 1:30 in fresh MHB and incubated with shaking for approximately 2 h to the mid-log phase, before resuspending to the appropriate dose, according to the optical density (OD). Minimum inhibitory concentration (MIC) determinations were carried out in MHB on mid-log phase bacteria (1–5 × 10^5 CFU/mL, CFU: colony-forming units) as previously described.

KpTs101 [4] = assay type: cell-based, Klebsiella pneumoniae; details: 24 h; remark: listed apart in the source
Procedure: as §2

KpTs109 = assay type: cell-based, Klebsiella pneumoniae; details: 24 h
Procedure: as §2

KpTs113 [5] = assay type: cell-based, Klebsiella pneumoniae; details: 24 h; remark: listed apart in the source
Procedure: as §2

KpTs12 = assay type: cell-based, Klebsiella pneumoniae; details: 24 h
Procedure: as §2

ATCC 700603 = assay type: cell-based, Klebsiella pneumoniae; details: ATCC 700603, 24 h
Procedure: as §2

KpMn7 = assay type: cell-based, Klebsiella pneumoniae; details: 24 h
Procedure: as §2

KpMn7 biofilm = details: 24 h
KpTs12 biofilm = details: 24 h

## Bac7(1–35)-BY: BODIPY fluorescently labelled derivative of Bac7(1–35) (RRIRPRPPRLPRPRPRPLPFPRPGPRPIPRPLPFP; also: BODIPY label, position not given here; UniProt P19661 131-165, looked up, fragment)
KpTs113 [1]
  quenching of cell fluorescence by Trypan Blue (uptake): < 10%

## GRFKRFRKKFKKLFKKLSPVIPLLHL-NH2 [BMAP-27]
KpTs107 biofilm
  BIC (biofilm inhibitory concentration): >64 µM
ATCC 700603 biofilm
  BIC (biofilm inhibitory concentration): 64 µM
KpTs101 [2]
  Ps, MIC in the presence of matrix polysaccharide: 64 µM
KpTs113 [3]
  Ps, MIC in the presence of matrix polysaccharide: 64 µM
KpTs101 biofilm
  BIC (biofilm inhibitory concentration): >64 µM
KpTs109 biofilm
  BIC (biofilm inhibitory concentration): 32 µM
KpTs113 biofilm
  BIC (biofilm inhibitory concentration): >64 µM
KpTs107
  MIC: 4 µM
KpTs101 [4]
  MIC: 2 µM
KpTs109
  MIC: 4 µM
KpTs113 [5]
  MIC: 2 µM
KpTs12
  MIC: 4 µM
ATCC 700603
  MIC: 4 µM
KpMn7
  MIC: 4 µM
KpMn7 biofilm
  BIC (biofilm inhibitory concentration): 64 µM
KpTs12 biofilm
  BIC (biofilm inhibitory concentration): 16 µM

## RRIRPRPPRLPRPRPRPLPFPRPGPRPIPRPLPFP [Bac7(1–35)]
KpTs107 biofilm
  BIC (biofilm inhibitory concentration): 16 µM
ATCC 700603 biofilm
  BIC (biofilm inhibitory concentration): 32 µM
KpTs101 [2]
  Ps, MIC in the presence of matrix polysaccharide: 32 µM
KpTs113 [3]
  Ps, MIC in the presence of matrix polysaccharide: 32 µM
KpTs101 biofilm
  BIC (biofilm inhibitory concentration): 64 µM
KpTs109 biofilm
  BIC (biofilm inhibitory concentration): 32 µM
KpTs113 biofilm
  BIC (biofilm inhibitory concentration): 64 µM
KpTs107
  MIC: 4 µM
KpTs101 [4]
  MIC: 2 µM
KpTs109
  MIC: 4 µM
KpTs113 [5]
  MIC: 2 µM
KpTs12
  MIC: 4 µM
ATCC 700603
  MIC: 4 µM
KpMn7
  MIC: 4 µM
KpMn7 biofilm
  BIC (biofilm inhibitory concentration): 32 µM
KpTs12 biofilm
  BIC (biofilm inhibitory concentration): 8 µM
